Data from ChEMBL document CHEMBL3044783, “Effects of pyrrolizidine alkaloids on the performance of plant-parasitic and free-living nematodes” (Pest Manag Sci, 2009).
Values after ≈ are worked out from the molar mass of the structure shown. Active and inactive are the calls of the source. The rule behind the calls is not given here.

Legend:
[1] = test system: Rhabditis sp.; experiment: Nematicidal activity against juvenile stage of Rhabditis sp. assessed as reduction of nematode development at 1 mg/mL after 72 hr by stereomicroscopic analysis (reference value: 62%); type: functional; design: scale not given: the % may be the effect or the level left
[2] = test system: Rhabditis sp.; experiment: Nematicidal activity against juvenile stage of Rhabditis sp. assessed as reduction of fecundity at 0.1 mg/mL after 72 hr by stereomicroscopic analysis relative to untreated control; type: functional, organism-based
[3] = test system: Meloidogyne incognita; experiment: Nematicidal activity against juvenile stage of Meloidogyne incognita (root-knot nematode) assessed as inhibition of mobility after 168 hr; type: functional
[4] = test system: Heterodera schachtii; experiment: Nematicidal activity against juvenile stage of Heterodera schachtii assessed as inhibition of mobility incubated for 168 hr followed by compound wash out measured after 24 hr; type: functional
[5] = test system: Heterodera schachtii; experiment: Nematicidal activity against juvenile stage of Heterodera schachtii assessed as inhibition of mobility after 168 hr; type: functional
[6] = test system: Rhabditis sp.; experiment: Nematicidal activity against juvenile stage of Rhabditis sp. assessed as reduction of nematode development at 0.1 mg/mL after 72 hr by stereomicroscopic analysis (reference value: 62%); type: functional; design: scale not given: the % may be the effect or the level left
[7] = test system: Pratylenchus penetrans; experiment: Nematicidal activity against juvenile stage of Pratylenchus penetrans assessed as inhibition of mobility incubated for 168 hr followed by compound wash out measured after 24 hr; type: functional
[8] = test system: Rhabditis sp.; experiment: Nematicidal activity against juvenile stage of Rhabditis sp. assessed as inhibition of mobility after 168 hr; type: functional
[9] = test system: Rhabditis sp.; experiment: Nematicidal activity against juvenile stage of Rhabditis sp. assessed as reduction of nematode development at 0.01 mg/mL after 72 hr by stereomicroscopic analysis (reference value: 62%); type: functional; design: scale not given: the % may be the effect or the level left
[10] = test system: Pratylenchus penetrans; experiment: Nematicidal activity against juvenile stage of Pratylenchus penetrans assessed as inhibition of mobility after 20 hr; type: functional
[11] = test system: Meloidogyne incognita; experiment: Nematicidal activity against juvenile stage of Meloidogyne incognita (root-knot nematode) assessed as inhibition of mobility after 20 hr; type: functional
[12] = test system: Rhabditis sp.; experiment: Nematicidal activity against juvenile stage of Rhabditis sp. assessed as inhibition of mobility after 20 hr; type: functional, organism-based
[13] = test system: Pratylenchus penetrans; experiment: Nematicidal activity against juvenile stage of Pratylenchus penetrans assessed as inhibition of mobility after 168 hr; type: functional
[14] = test system: Heterodera schachtii; experiment: Nematicidal activity against juvenile stage of Heterodera schachtii assessed as inhibition of mobility after 20 hr; type: functional
[15] = test system: Meloidogyne incognita; experiment: Nematicidal activity against juvenile stage of Meloidogyne incognita (root-knot nematode) assessed as inhibition of mobility incubated for 168 hr followed by compound wash out measured after 24 hr; type: functional
[16] = test system: Rhabditis sp.; experiment: Nematicidal activity against juvenile stage of Rhabditis sp. assessed as reduction of fecundity at 0.01 mg/mL after 72 hr by stereomicroscopic analysis relative to untreated control; type: functional, organism-based

SMILES	Activity [1] [%]	Activity [2]	MIC50 [3] [µg/mL]	MIC50 [4]	MIC50 [5]	Activity [6] [%]	MIC50 [7]	MIC50 [8]	Activity [9] [%]	MIC50 [10]	MIC50 [11]	MIC50 [12]	MIC50 [13]	MIC50 [14]	MIC50 [15]	Activity [16]
CO[C@H](C)[C@](O)(C(=O)OCC1=CC[N+]2([O-])CC[C@H](O)[C@@H]12)C(C)C (some centres not stated) [HELIOTRINE N-OXIDE]	0	Active	900 (≈ 2.73 mM)	inactive	77400 µg/mL (≈ 235 mM)	55	inactive	inactive	68	inactive	4800 µg/mL (≈ 14.6 mM)	inactive	inactive	inactive	1700 µg/mL (≈ 5.16 mM)	–
CO[C@H](C)[C@](O)(C(=O)OCC1=CCN2CC[C@H](O)[C@@H]12)C(C)C [HELIOTRINE]	0	Active	300 (≈ 0.957 mM)	1100 µg/mL (≈ 3.51 mM)	2100 µg/mL (≈ 6.7 mM)	32	3300 µg/mL (≈ 10.5 mM)	100 µg/mL (≈ 0.319 mM)	58	49800 µg/mL (≈ 159 mM)	57900 µg/mL (≈ 185 mM)	inactive	4800 µg/mL (≈ 15.3 mM)	inactive	800 µg/mL (≈ 2.55 mM)	Active
C/C=C(/C)C(=O)O[C@H]1CC[N+]2([O-])CC=C(COC(=O)[C@](O)(C(C)C)[C@@H](C)OC)[C@H]12 (some centres not stated) [LASIOCARPINE N-OXIDE]	–	–	84400 (≈ 205 mM)	inactive	inactive	–	–	–	–	–	inactive	–	–	inactive	inactive	–
